These results are taken from article PMC7936271, “Discovery and characterization of bromodomain 2–specific inhibitors of BRDT” (Proceedings of the National Academy of Sciences of the …, 2021).

The term IC50 denotes the concentration at which inhibition is half-maximal. Low values mean greater potency, high ones weaker potency. Broadly, the inhibition is the relative decrease from the control value, in per cent. By % inhibition is commonly meant the share of the control response that was lost under treatment. High values mean strong suppression, low ones little suppression.

Data set [1] concerns the target BRD4-BD2.
Data set [2] addresses T1, BRD4-BD1 (Homo sapiens, UniProt O60885).
T1 construct: amino acid 44− 168; made in house; host or cells: E. coli NiCo21 (DE3)
Kind of data set: AlphaScreen competition assay with biotinylated JQ1, BRD4-BD1. In kind it is binding.

Data set [3] in a line: Metabolic stability assay in mouse liver microsomes. In kind it is in vitro ADME. To be noted: for half-life at 2 μM / t1/2, min MLM: mouse liver microsomes, 37 °C, data >60 min are an extrapolated estimate, 2.0 μM; for half-life at 2 μM: read-out: t1/2, min MLM; for mouse microsomal stability: result in words. The method, then: (§1) 2d) Metabolic stability assay in liver microsomes. […]
(§2) The reactions are terminated by adding equivalent
(§3) volume of ice-cold CH3OH and vortexed.
(§4) temperature was ma i ntained at 40 °C.
(§5) (acetonitrile containing 0.1% formic acid). […]

Data set [4] has as its target BRD4-BD1.
A short description of data set [5]: Metabolic stability assay in human liver microsomes. The settings on record: for half-life at 2 μM / t1/2, min HLM: human liver microsomes, 37 °C, data >60 min are an extrapolated estimate, 2.0 μM; for half-life at 2 μM: read-out: t1/2, min HLM. In kind it is in vitro ADME. The method, then:
as §1, §2, §3, §4, §5

Data set [6] concerns the target BRD4-BD2 (Homo sapiens, UniProt O60885). Kind of data set: AlphaScreen competition assay with biotinylated JQ1, BRD4-BD2. The format is binding. Also noted: BD2, NP_055114.1 amino acid 333− 460; made in house; host or cells: E. coli NiCo21 (DE3). (Bead proximity is the source of the signal in Alpha formats.)
In data set [7] the target is BRDT-BD2 (Homo sapiens, UniProt Q58F21). Kind of data set: AlphaScreen competition assay with biotinylated JQ1, BRDT-BD2. The format is binding. Also noted: BRDT-BD2, NP_001717.3 amino acid 269− 380; made in house; host or cells: E. coli NiCo21 (DE3). The settings on record: for BRDT-BD2 activity / affinity: result in words.
In data set [8] the target is BRDT-BD2.
For data set [9], the target named is T2, BRDT-BD1 (Homo sapiens, UniProt Q58F21).
T2 construct: NP_001717.3 amino acid 21− 137; made in house; host or cells: E. coli NiCo21 (DE3)
As to the kind of experiment: AlphaScreen competition assay with biotinylated JQ1, BRDT-BD1. To be noted: for inhibition at 10 µM: read-out: Inhibition at 10 µM for BRDT-BD1. In kind it is binding.

Data set [10] has as its system BRDT-BD1.
Setting [11] is: ratio of AlphaScreen IC50 values.
Where [12] appears, read: AlphaScreen, biotinylated JQ1 as ligand, NE: no effect at 20 µM.
[13] abbreviates: AlphaScreen, biotinylated JQ1 as ligand.

Several values for one entry are separate records, joined by “and”; a condition that tells them apart may be missing. Equal values may be shown once. Entries after “also recorded” stand apart in the source; their conditions may differ. Read-outs that look alike come from different tables or passages of the source. Bounds are passed on as bounds.

Regarding `CNC(=O)c1ccc(C(=O)Nc2cc(NC(=O)c3ccc4c(c3)c(-c3cc5ccccc5n3C)nn4C)ccc2C)cc1` [Compound 8], the half-inhibitory concentration (IC50) at BRD4-BD2 [1] came to 31 nM; on BRD4-BD1 [2], 26200 nM; against BRD4-BD1 [4] it was 26200 nM; at BRD4-BD2 [6] it was 31 nM; at BRDT-BD2 [7], 13 nM; at BRDT-BD2 [8], 13 nM. For the same compound, the half-inhibitory concentration (IC50) at BRDT-BD1 [9] and on BRDT-BD1 [10] was above 10000 nM throughout. Further, the half-life at 2 μM was 0.85 h in [3] and 2.5 h in [5]. In addition, the “BRD4-BD2 vs. BRD4-BD1 (BRD4-BD2 selectivity)” value on BRD4-BD2 [6] (setting [11]) is 850. The “BRDT-BD2 activity / affinity” value on BRDT-BD2 [7] (AlphaScreen) is on record as “low nanomolar affinity”. At BRDT-BD2 [7] (setting [11]), the “BRDT-BD2 vs. BRD4-BD2” value is recorded as 2.4. At BRDT-BD2 [7] (setting [11]), the “BRDT-BD2 vs. BRDT-BD1 (BRDT-BD2 selectivity)” value was above 750. Also, the inhibition at 10 µM at BRDT-BD1 [9] worked out at 11%. Also, the “% inhibition at 10 µM” value with BRDT-BD1 [10] came to 11%.

For `CNC(=O)c1ccc(C(=O)Nc2cc(NC(=O)c3ccc4c(c3)c(-c3ccc(N)nc3)nn4C)ccc2C)cc1` [Compound 10], the IC50 is 46 nM on BRD4-BD2 [1]; above 10000 nM at BRD4-BD1 [2]; above 10000 nM against BRD4-BD1 [4]; 46 nM on BRD4-BD2 [6]; 17 nM at BRDT-BD2 [7]; 17 nM against BRDT-BD2 [8]. At BRDT-BD1 [10], this compound had a concentration for half-maximal inhibition (IC50) above 10000 nM. In addition, the inhibition at 10 µM amounted to 20% at BRD4-BD1 [2] (read-out: Inhibition at 10 µM for BRD4-BD1) and 16% at BRDT-BD1 [9]. Also, the half-life at 2 μM was 3.17 h in [3] and 4 h in data set [5]. The mouse microsomal stability entry in data set [3] is “high metabolic stability; also recorded: high mouse microsomal stability”. For the same compound, the figures for the “% inhibition at 10 µM” value in the data set with BRD4-BD1 [4] and with BRDT-BD1 [10] were 20% and 16%, respectively. In addition, in data set [5] (result in words), the human microsomal stability entry is “high metabolic stability”. The “BRD4-BD2 vs. BRD4-BD1 (BRD4-BD2 selectivity)” value at BRD4-BD2 [6] (setting [11]) is listed as above 210. Also, at BRDT-BD2 [7] (AlphaScreen), the “BRDT-BD2 activity / affinity” value is reported as “slightly lower affinity than CDD-1102”. Also, on BRDT-BD2 [7] (setting [11]), the “BRDT-BD2 vs. BRD4-BD2” value is 2.7. For the same compound, the “BRDT-BD2 vs. BRDT-BD1 (BRDT-BD2 selectivity)” value at BRDT-BD2 [7] (setting [11]) is on record as above 600.

As for `CNC(=O)c1ccc(C(=O)Nc2cc(NC(=O)c3ccc4c(c3)c(-c3cnc(N)cc3C)nn4C)ccc2C)cc1` [Compound 15], the IC50 was 140 nM at BRD4-BD2 [1]; above 20000 nM at BRD4-BD1 [2] (setting [12]); 140 nM at BRD4-BD2 [6] (setting [13]); 22 nM at BRDT-BD2 [7] (setting [13]); 22 nM against BRDT-BD2 [8]; above 20000 nM on BRDT-BD1 [9] (setting [12]). For the same compound, the “t1/2, min MLM” value in data set [3] was 2.5 h. In addition, the mouse microsomal stability entry in data set [3] is recorded as “high mouse microsomal stability”. Moreover, the “t1/2, min HLM” value in data set [5] was 3.67 h. Further, the “BRD4-BD2 vs. BRD4-BD1 (BRD4-BD2 selectivity)” value on BRD4-BD2 [6] is above 140. For the same compound, on BRDT-BD2 [7] (AlphaScreen), the “BRDT-BD2 activity / affinity” value is “lower affinity than compound 10”. Further, the “BRDT-BD2 vs. BRD4-BD2” value at BRDT-BD2 [7] (ratio of AlphaScreen IC50 values, listed as 15 (CDD-1349)) was 6.4; at BRDT-BD2 [7] (ratio of AlphaScreen IC50 values, listed as CDD-1349), “sixfold”.

On to `CC(=O)Nc1cc(NC(=O)c2ccc3c(c2)c(-c2ccc(N)nc2)nn3C)ccc1C` [Compound 17], for which the IC50 was found to be 51 nM on BRD4-BD2 [1]; 25100 nM on BRD4-BD1 [2] (setting [12]); 25100 nM at BRD4-BD1 [4]; 51 nM at BRD4-BD2 [6] (setting [13]); 47 nM on BRDT-BD2 [7] (setting [13]); 47 nM against BRDT-BD2 [8]. The IC50 is 36200 nM at BRDT-BD1 [9] (setting [12]); > 10000 nM and 36200 nM against BRDT-BD1 [10]. Further, in [3], the “t1/2, min MLM” value is 3.33 h. In addition, the mouse microsomal stability entry in data set [3] is given as “high mouse microsomal stability”. For the same compound, in data set [5], the “t1/2, min HLM” value was 8.17 h. In addition, at BRD4-BD2 [6], the “BRD4-BD2 vs. BRD4-BD1 (BRD4-BD2 selectivity)” value is 490. Moreover, on BRDT-BD2 [7], the “BRDT-BD2 vs. BRDT-BD1 (BRDT-BD2 selectivity)” value was 770. In addition, the “BRDT-BD2 vs. BRD4-BD2” value on BRDT-BD2 [7] (setting [11]) is listed as 1.1.

For `COc1ccc(NC(=O)c2ccc3nn(C)c(-c4ccc(N)cc4C)c3c2)cc1` [Compound 27], the “BRDT-BD2 activity / affinity” value on BRDT-BD2 [7] (AlphaScreen) is given as “dramatic loss of activity; also recorded: inactivity”. The results for the IC50 at BRDT-BD2 [8] and against BRDT-BD1 [10] were 17200 nM and above 10000 nM, respectively.
